Test system: MV-4-11 cells
Experiment: Gene expression microarray analysis (Affymetrix PrimeView) and GSEA
Assay type: cell-based, human
Parameters: RFU PODN (11730768_x_at) / Fold change /veh PODN (11730768_x_at) / RFU LINC00158 (11744669_a_at) / Fold change /veh LINC00158 (11744669_a_at) / RFU DUSP10 (11751237_a_at) / Fold change /veh DUSP10 (11751237_a_at) / RFU ID3 (11757404_x_at) / Fold change /veh ID3 (11757404_x_at) / RFU PLEKHG5 (11737974_s_at) / Fold change /veh PLEKHG5 (11737974_s_at) / RFU LRRC4B (11730491_at) / Fold change /veh LRRC4B (11730491_at) / RFU GIMAP4 (11747438_a_at) / Fold change /veh GIMAP4 (11747438_a_at) / RFU KRT8 (11758183_x_at) / Fold change /veh KRT8 (11758183_x_at) / RFU CNN1 (11734310_a_at) / Fold change /veh CNN1 (11734310_a_at) / RFU VPS37D (11726825_at) / Fold change /veh VPS37D (11726825_at) / RFU C10orf10 (11716522_x_at) / Fold change /veh C10orf10 (11716522_x_at) / RFU KIR2DL2 /// KIR2DL4 /// KIR2DL5A /// KIR2DL5B /// KIR2DS1 /// KIR2DS2 /// KIR2DS3 /// KIR2DS4 /// KIR3DL3 /// KIR3DL3 /// KIR3DS1 (11738374_at) / Fold change /veh KIR2DL2 /// KIR2DL4 /// KIR2DL5A /// KIR2DL5B /// KIR2DS1 /// KIR2DS2 /// KIR2DS3 /// KIR2DS4 /// KIR3DL3 /// KIR3DL3 /// KIR3DS1 (11738374_at) / RFU C1QL1 (11718748_at) / Fold change /veh C1QL1 (11718748_at) / RFU TMPRSS4 (11747572_a_at) / Fold change /veh TMPRSS4 (11747572_a_at) / RFU HAMP (11756126_x_at) / Fold change /veh HAMP (11756126_x_at) / RFU RNFT2 (11725882_a_at) / Fold change /veh RNFT2 (11725882_a_at) / RFU NR4A2 (11747474_a_at) / Fold change /veh NR4A2 (11747474_a_at) / RFU ABCC12 (11746883_a_at) / Fold change /veh ABCC12 (11746883_a_at) / RFU TMEM136 (11760407_x_at) / Fold change /veh TMEM136 (11760407_x_at) / RFU CLDN22 /// WWC2 (11732394_at) / Fold change /veh CLDN22 /// WWC2 (11732394_at) / RFU HLA-DPB1 (11760878_x_at) / Fold change /veh HLA-DPB1 (11760878_x_at) / RFU SPINT1 (11716480_a_at) / Fold change /veh SPINT1 (11716480_a_at) / RFU GAP43 (11754022_s_at) / Fold change /veh GAP43 (11754022_s_at) / RFU A4GNT (11735810_at) / Fold change /veh A4GNT (11735810_at) / RFU PRB3 (11715151_x_at) / Fold change /veh PRB3 (11715151_x_at) / RFU TUBB4B (11761932_at) / Fold change /veh TUBB4B (11761932_at) / RFU CAPN14 (11732068_a_at) / Fold change /veh CAPN14 (11732068_a_at) / RFU TMCC2 (11721928_a_at) / Fold change /veh TMCC2 (11721928_a_at) / RFU IRGQ (11745062_a_at) / Fold change /veh IRGQ (11745062_a_at) / RFU FAM174B (11720279_a_at) / Fold change /veh FAM174B (11720279_a_at) / RFU TMPRSS4 (11748680_a_at) / Fold change /veh TMPRSS4 (11748680_a_at) / RFU FAM212B (11763350_a_at) / Fold change /veh FAM212B (11763350_a_at) / RFU PLEKHG5 (11743358_a_at) / Fold change /veh PLEKHG5 (11743358_a_at) / RFU ZSCAN30 (11745921_a_at) / Fold change /veh ZSCAN30 (11745921_a_at) / RFU CMKLR1 (11741424_a_at) / Fold change /veh CMKLR1 (11741424_a_at) / RFU LOC101060620 /// MAPK8IP1 (11723275_at) / Fold change /veh LOC101060620 /// MAPK8IP1 (11723275_at) / RFU SPTSSB (11747773_x_at) / Fold change /veh SPTSSB (11747773_x_at) / RFU PRSS12 (11739890_at) / Fold change /veh PRSS12 (11739890_at) / RFU BIN1 (11741810_x_at) / Fold change /veh BIN1 (11741810_x_at) / RFU WNT11 (11732464_a_at) / Fold change /veh WNT11 (11732464_a_at) / RFU C10orf10 (11716521_a_at) / Fold change /veh C10orf10 (11716521_a_at) / RFU C5orf56 (11738089_at) / Fold change /veh C5orf56 (11738089_at) / RFU CYB561 (11721691_x_at) / Fold change /veh CYB561 (11721691_x_at) / RFU ANKRD19P (11752326_a_at) / Fold change /veh ANKRD19P (11752326_a_at) / RFU OR2T12 /// OR2T33 /// OR2T8 (11738714_s_at) / Fold change /veh OR2T12 /// OR2T33 /// OR2T8 (11738714_s_at) / RFU VCAN (11748164_a_at) / Fold change /veh VCAN (11748164_a_at) / RFU JSRP1 (11732532_at) / Fold change /veh JSRP1 (11732532_at) / RFU KRTAP10-11 (11738290_x_at) / Fold change /veh KRTAP10-11 (11738290_x_at) / RFU MYO3A (11730013_a_at) / Fold change /veh MYO3A (11730013_a_at) / RFU EBF3 (11725865_a_at) / Fold change /veh EBF3 (11725865_a_at) / RFU CAMK2N1 (11719241_x_at) / Fold change /veh CAMK2N1 (11719241_x_at) / RFU C5orf56 (11738088_a_at) / Fold change /veh C5orf56 (11738088_a_at) / RFU OLFML3 (11715873_a_at) / Fold change /veh OLFML3 (11715873_a_at) / RFU LOC100653217 /// NTM (11731650_a_at) / Fold change /veh LOC100653217 /// NTM (11731650_a_at) / RFU MAPK11 (11762145_a_at) / Fold change /veh MAPK11 (11762145_a_at) / RFU FIZ1 (11724087_x_at) / Fold change /veh FIZ1 (11724087_x_at) / RFU OASL (11726364_x_at) / Fold change /veh OASL (11726364_x_at) / RFU SOX15 (11748057_x_at) / Fold change /veh SOX15 (11748057_x_at) / RFU CD79A (11719716_a_at) / Fold change /veh CD79A (11719716_a_at) / RFU HIST1H1D (11736915_at) / Fold change /veh HIST1H1D (11736915_at) / RFU CASKIN2 (11723855_a_at) / Fold change /veh CASKIN2 (11723855_a_at) / RFU LOC730098 (11760151_x_at) / Fold change /veh LOC730098 (11760151_x_at) / RFU OR4N2 (11742367_at) / Fold change /veh OR4N2 (11742367_at) / RFU PRRT2 (11749266_a_at) / Fold change /veh PRRT2 (11749266_a_at) / RFU SNX32 (11753110_a_at) / Fold change /veh SNX32 (11753110_a_at) / RFU CDHR5 (11726645_a_at) / Fold change /veh CDHR5 (11726645_a_at) / RFU RCAN1 (11760418_a_at) / Fold change /veh RCAN1 (11760418_a_at) / RFU FAM167A (11723789_a_at) / Fold change /veh FAM167A (11723789_a_at) / RFU FAM26E (11764081_at) / Fold change /veh FAM26E (11764081_at) / RFU ISYNA1 (11749810_s_at) / Fold change /veh ISYNA1 (11749810_s_at) / RFU ACY1 (11761880_at) / Fold change /veh ACY1 (11761880_at) / RFU 11764098_at / Fold change /veh 11764098_at / RFU SAMD14 (11745864_x_at) / Fold change /veh SAMD14 (11745864_x_at) / RFU NPB (11741838_a_at) / Fold change /veh NPB (11741838_a_at) / RFU TMPRSS6 (11731388_a_at) / Fold change /veh TMPRSS6 (11731388_a_at) / RFU KRTAP10-2 (11738614_at) / Fold change /veh KRTAP10-2 (11738614_at) / RFU ARHGAP8 /// PRR5-ARHGAP8 (11727945_x_at) / Fold change /veh ARHGAP8 /// PRR5-ARHGAP8 (11727945_x_at) / RFU KRTAP5-7 /// NADSYN1 (11734609_at) / Fold change /veh KRTAP5-7 /// NADSYN1 (11734609_at) / RFU RASL12 (11751679_a_at) / Fold change /veh RASL12 (11751679_a_at) / RFU CDKN2B (11736163_a_at) / Fold change /veh CDKN2B (11736163_a_at) / RFU PRF1 (11729649_at) / Fold change /veh PRF1 (11729649_at) / RFU, ZNF638 /// ZNF638-IT1 / Fold change vs veh, ZNF638 /// ZNF638-IT1 / RFU, PANK3 / Fold change vs veh, PANK3 / RFU, SH3YL1 / Fold change vs veh, SH3YL1 / RFU, ZEB2 / Fold change vs veh, ZEB2 / RFU, NRIP1 / Fold change vs veh, NRIP1 / RFU, PTTG1IP / Fold change vs veh, PTTG1IP / RFU, CAPN2 / Fold change vs veh, CAPN2 / RFU, MED14 / Fold change vs veh, MED14 / RFU, SNORA58 / Fold change vs veh, SNORA58 / RFU, C1orf63 / Fold change vs veh, C1orf63 / RFU, LRRFIP1 / Fold change vs veh, LRRFIP1 / RFU, NDUFAF7 / Fold change vs veh, NDUFAF7 / RFU, SLC12A2 / Fold change vs veh, SLC12A2 / RFU, IBTK / Fold change vs veh, IBTK / RFU, ESF1 / Fold change vs veh, ESF1 / Fold change vs veh, TMEM50B / RFU, TAOK1 / Fold change vs veh, TAOK1 / RFU, ACBD3 / Fold change vs veh, ACBD3 / RFU, TMA16 / Fold change vs veh, TMA16 / RFU, RWDD3 / Fold change vs veh, RWDD3 / RFU, BCAT1 / Fold change vs veh, BCAT1 / RFU, EDEM3 / Fold change vs veh, EDEM3 / RFU, TMEM33 / Fold change vs veh, TMEM33 / RFU, WDR75 / Fold change vs veh, WDR75 / RFU, AHCTF1 / Fold change vs veh, AHCTF1 / RFU, TFRC / Fold change vs veh, TFRC / RFU, ZDHHC17 / Fold change vs veh, ZDHHC17 / RFU, NOM1 / Fold change vs veh, NOM1 / RFU, ARL8B / Fold change vs veh, ARL8B / RFU, ZBTB11 / Fold change vs veh, ZBTB11 / RFU, TAMM41 / Fold change vs veh, TAMM41 / RFU, KIAA1704 /// LOC100996395 / Fold change vs veh, KIAA1704 /// LOC100996395 / RFU, ING1 / Fold change vs veh, ING1 / RFU, TRMT61B / Fold change vs veh, TRMT61B / RFU, FUBP3 / Fold change vs veh, FUBP3 / RFU, TP53 / Fold change vs veh, TP53 / RFU, TNKS2 / Fold change vs veh, TNKS2 / RFU, ZFP14 / Fold change vs veh, ZFP14 / RFU, ACTR2 / Fold change vs veh, ACTR2 / RFU, PPP3R1 / Fold change vs veh, PPP3R1 / RFU, PIK3R1 / Fold change vs veh, PIK3R1 / RFU, HNRNPA1 / Fold change vs veh, HNRNPA1 / RFU, RNF170 / Fold change vs veh, RNF170 / RFU, ZNF28 / Fold change vs veh, ZNF28 / RFU, RNGTT / Fold change vs veh, RNGTT / RFU, OGT / Fold change vs veh, OGT / RFU, BRD1 / Fold change vs veh, BRD1 / RFU, MARS / Fold change vs veh, MARS / RFU, ZNF655 / Fold change vs veh, ZNF655 / RFU, FAHD1 / Fold change vs veh, FAHD1 / RFU, BDP1 / Fold change vs veh, BDP1 / RFU, LRRCC1 / Fold change vs veh, LRRCC1 / RFU, ARID1A / Fold change vs veh, ARID1A / RFU, ZNF146 / Fold change vs veh, ZNF146 / RFU, ZNF330 / Fold change vs veh, ZNF330 / RFU, GPN3 / Fold change vs veh, GPN3 / RFU, C9orf123 / Fold change vs veh, C9orf123 / RFU, N4BP2L2 / Fold change vs veh, N4BP2L2 / RFU, ARFIP1 / Fold change vs veh, ARFIP1 / RFU, FAM179B / Fold change vs veh, FAM179B / RFU, BCL10 / Fold change vs veh, BCL10 / RFU, UHRF1BP1L / Fold change vs veh, UHRF1BP1L / RFU, BET1 / Fold change vs veh, BET1 / RFU, CNOT2 / Fold change vs veh, CNOT2 / RFU, ZNF268 / Fold change vs veh, ZNF268 / Fold change vs veh, ZNF507 / RFU, DGCR2 / Fold change vs veh, DGCR2 / RFU, WDSUB1 / Fold change vs veh, WDSUB1 / Fold change vs veh, HSP90B1 /// MIR3652 / RFU, ADSS / Fold change vs veh, ADSS / RFU, GK / Fold change vs veh, GK / RFU, ZNF148 / Fold change vs veh, ZNF148 / RFU, TAF9 / Fold change vs veh, TAF9 / RFU, SLC1A5 / Fold change vs veh, SLC1A5 / RFU, SLMO2 / Fold change vs veh, SLMO2 / RFU, ABCC4 / Fold change vs veh, ABCC4 / RFU, LOC101060439 /// RAP1B / Fold change vs veh, LOC101060439 /// RAP1B / RFU, RFX7 / Fold change vs veh, RFX7 / RFU, GTPBP10 / Fold change vs veh, GTPBP10 / RFU, CNEP1R1 / Fold change vs veh, CNEP1R1 / RFU, BIVM-ERCC5 /// ERCC5 / Fold change vs veh, BIVM-ERCC5 /// ERCC5 / RFU, ILF3 / Fold change vs veh, ILF3 / RFU 11762660_at / Fold change /veh 11762660_at / RFU VCAN (11757783_s_at) / Fold change /veh VCAN (11757783_s_at) / RFU DDX43 (11728927_at) / Fold change /veh DDX43 (11728927_at) / RFU KRT8 (11758188_x_at) / Fold change /veh KRT8 (11758188_x_at) / RFU NKD1 (11759106_at) / Fold change /veh NKD1 (11759106_at) / RFU SRD5A1 (11742802_a_at) / Fold change /veh SRD5A1 (11742802_a_at) / RFU TPSAB1 /// TPSB2 (11721975_s_at) / Fold change /veh TPSAB1 /// TPSB2 (11721975_s_at) / RFU GSTM3 (11746129_a_at) / Fold change /veh GSTM3 (11746129_a_at) / RFU IL23R (11737362_x_at) / Fold change /veh IL23R (11737362_x_at) / RFU TMEM51 (11727254_a_at) / Fold change /veh TMEM51 (11727254_a_at) / RFU PIWIL2 (11732686_x_at) / Fold change /veh PIWIL2 (11732686_x_at) / RFU ORM1 (11744905_x_at) / Fold change /veh ORM1 (11744905_x_at) / RFU CCDC152 (11743942_at) / Fold change /veh CCDC152 (11743942_at) / RFU ECM1 (11717891_a_at) / Fold change /veh ECM1 (11717891_a_at) / RFU IL23R (11748794_a_at) / Fold change /veh IL23R (11748794_a_at) / RFU TNFAIP8L3 (11732012_x_at) / Fold change /veh TNFAIP8L3 (11732012_x_at) / RFU MBOAT4 (11741988_at) / Fold change /veh MBOAT4 (11741988_at) / RFU 11764193_at / Fold change /veh 11764193_at / RFU TMEM53 (11763286_at) / Fold change /veh TMEM53 (11763286_at) / RFU MAGEB2 (11727129_at) / Fold change /veh MAGEB2 (11727129_at) / RFU TMEM200A (11744735_a_at) / Fold change /veh TMEM200A (11744735_a_at) / RFU CCDC152 (11751479_a_at) / Fold change /veh CCDC152 (11751479_a_at) / RFU FAM211A (11726209_a_at) / Fold change /veh FAM211A (11726209_a_at) / RFU RGS16 (11746705_a_at) / Fold change /veh RGS16 (11746705_a_at) / RFU VCAN (11755009_s_at) / Fold change /veh VCAN (11755009_s_at) / RFU RHOB (11743442_s_at) / Fold change /veh RHOB (11743442_s_at) / RFU RGS16 (11720943_a_at) / Fold change /veh RGS16 (11720943_a_at) / RFU RGS16 (11720944_at) / Fold change /veh RGS16 (11720944_at) / RFU, VPS4B / Fold change vs veh, VPS4B / RFU, CREB1 / Fold change vs veh, CREB1 / RFU, DNAJC13 / Fold change vs veh, DNAJC13 / RFU, GNAQ / Fold change vs veh, GNAQ / RFU, CDK5R1 / Fold change vs veh, CDK5R1 / RFU, ZRANB3 / Fold change vs veh, ZRANB3 / RFU, CUL4A / Fold change vs veh, CUL4A / RFU, CCNY / Fold change vs veh, CCNY / RFU, UFL1 / Fold change vs veh, UFL1 / RFU, COG3 / Fold change vs veh, COG3 / RFU, DIAPH2 / Fold change vs veh, DIAPH2 / RFU, SKA2 / Fold change vs veh, SKA2 / RFU, AFF3 / Fold change vs veh, AFF3 / RFU, LMF1 / Fold change vs veh, LMF1 / RFU, IPO11 / Fold change vs veh, IPO11 / RFU, DFFB / Fold change vs veh, DFFB / RFU, FOXP1 / Fold change vs veh, FOXP1 / RFU, CARD8 / Fold change vs veh, CARD8 / RFU, STRN3 / Fold change vs veh, STRN3 / RFU, ADK / Fold change vs veh, ADK / RFU, RASSF2 / Fold change vs veh, RASSF2 / RFU, WIPF1 / Fold change vs veh, WIPF1 / RFU, LARP1B / Fold change vs veh, LARP1B / RFU, RASA1 / Fold change vs veh, RASA1 / RFU, RB1 / Fold change vs veh, RB1 / RFU, PPFIA1 / Fold change vs veh, PPFIA1 / RFU, MAT2A / Fold change vs veh, MAT2A / RFU, CCT5 / Fold change vs veh, CCT5 / RFU, WDR92 / Fold change vs veh, WDR92 / RFU, CUX1 / Fold change vs veh, CUX1 / RFU, TTC7A / Fold change vs veh, TTC7A / RFU, TMEM135 / Fold change vs veh, TMEM135 / RFU, DEPTOR / Fold change vs veh, DEPTOR / RFU, CPM / Fold change vs veh, CPM / RFU, DNAJB6 / Fold change vs veh, DNAJB6 / RFU, CACNA2D3 / Fold change vs veh, CACNA2D3 / RFU, DTX4 / Fold change vs veh, DTX4 / RFU, TFCP2 / Fold change vs veh, TFCP2 / RFU, GMCL1 /// GMCL1P1 / Fold change vs veh, GMCL1 /// GMCL1P1 / RFU, AEBP2 / Fold change vs veh, AEBP2 / RFU, SNHG1 /// SNORD22 /// SNORD25 /// SNORD26 /// SNORD27 /// SNORD28 /// SNORD29 /// SNORD31 / Fold change vs veh, SNHG1 /// SNORD22 /// SNORD25 /// SNORD26 /// SNORD27 /// SNORD28 /// SNORD29 /// SNORD31 / Fold change (Aza/veh), C12orf56 (ProbeSet 11735607_a_at) / Fold change (ACY-1035/veh), C12orf56 (ProbeSet 11735607_a_at) / Fold change (Aza/veh), FGFR1OP (ProbeSet 11751329_s_at) / Fold change (ACY-1035/veh), FGFR1OP (ProbeSet 11751329_s_at) / Fold change (Aza/veh), VPS36 (ProbeSet 11739960_a_at) / Fold change (ACY-1035/veh), VPS36 (ProbeSet 11739960_a_at) / RFU SYPL1 (11715823_x_at) / Fold change /veh SYPL1 (11715823_x_at) / RFU IGFBP7 (11715501_s_at) / Fold change /veh IGFBP7 (11715501_s_at) / RFU REEP3 (11722064_at) / Fold change /veh REEP3 (11722064_at) / RFU IGLL1 (11728026_x_at) / Fold change /veh IGLL1 (11728026_x_at): dose or concentration left out as unconfirmed
Conditions: MV-4-11 cells, 48 hours

Nc1ncn([C@@H]2O[C@H](CO)[C@@H](O)[C@H]2O)c(=O)n1 [azacitidine]
RFU HAMP (11756126_x_at): 317.78 RFU

— publication PMC5218480 (PLoS ONE, 2017)
